The nature of data set [1]: Apparent pKa of LNP systems (TNS fluorescence assay). Type of data set: physicochemical. The settings on record: LNP containing ionizable lipid and FVII siRNA. On the procedure: Apparent acid dissociation constants (pKa) of LNP systems were determined according to a procedure described in the literature (Jayaraman, M., et al., Maximizing the potency of siRNA lipid nanoparticles for hepatic gene silencing in vivo. Angewandte Chemie, 2012. 51(34): p. 8529-33). Briefly, 2-(p-toluidino)-6-napthalene sulfonic acid (TNS, Sigma-Aldrich, St. Louis, Mo.) and LNP were diluted in buffer (10 mM HEPES, 10 mM MES and 10 mM ammonium acetate) with pH ranges from 2.5 to 11. Final concentration of TNS or total lipid was 6 μM. Samples were then mixed and fluorescence intensity was measured (Ex/Em: 321/445 nm) using a Perkin Elmer LS55. A sigmoidal best fit analysis was applied and the pKa was measured as the pH at half-maximal fluorescence intensity.

The nature of data set [2]: Peptide incorporation into LNP (Peptide:Lipid ratio; BCA or CBQCA protein quantification). Type of data set: physicochemical. On the procedure:
(§1) Lipid concentrations were determined by measuring total cholesterol using the Cholesterol E enzymatic assay kit from Wako Chemicals USA (Richmond, Va.).
Quantification of protein/peptide was performed with the use of either the BCA Protein Assay (Pierce) or the CBQCA Protein Quantitation Kit (Invitrogen) according to the manufacturer's instructions.

For a further data set, the system named is factor VII (FVII). The data set can be described thus: LNP-siRNA activity in the mouse Factor VII model. Conditions: C57Bl/6 mice, i.v. tail vein, 0.03-0.3 mg/kg siRNA, 24 hours post-injection. The data set is classed as in vivo. On the procedure:
Lipid nanoparticle (LNP) formulations containing cationic lipids of the disclosure and FVII siRNA were injected via a tail vein in C57Bl/6 wild-type mice and the levels of FVII in plasma was measured post injection. The mice were injected with LNP-siRNA at doses of 0.03 (left bar), 0.1 (middle bar) and 0.3 mg/kg (right bar). The cationic lipids incorporated in the LNPs were INT-A001, INT-A002, INT-A003 and INT-A007.
LNPs prepared as described in Example 2 containing siRNA against factor VII (FVII) were diluted with PBS such that injection volumes were maintained at 10 mL/kg body weight and administered (based on siRNA concentration) intravenously via tail vein in 6 to 8 weeks old female C57Bl/6 mice (Charles River Laboratories, Wilmington, Mass.). At 24 hours post-injection, animals were euthanized and blood was collected via intracardiac sampling. Blood samples were allowed to coagulate at 4° C. overnight and the serum was separated followed by centrifugation for 15 min at 12,000 rpm. The serum FVII levels were determined using the Biophen VII chromogenic assay (Aniara, Mason, Ohio) according to the protocol of the manufacturer.

A further data set concerns HepG2 cells. Put plainly: LNP luciferase mRNA expression in cultured HepG2 cells. Type of data set: cell-based. The settings on record: 0.125-1 μg/mL luciferase mRNA, 16-24 hr. On the procedure:
Cells were treated with LNP formulations containing ionizable lipids of the disclosure and luciferase mRNA at concentrations of 0.125-1 μg/mL. The level of luminescence was measured post treatment. From left-to-right, the ionizable lipids incorporated in the LNPs were INT-A001 (white bar), INT-A002 (dotted bar), INT-A003 (black bar) and INT-A004 (gray bar).
The activity of the ionizable lipids in vitro was evaluated in cultured HepG2 cells. LNPs containing Firefly Luciferase mRNA were prepared as described in Example 2. LNPs were diluted to 0.125-1 μg/mL with DMEM media containing 10% FBS and incubated with HepG2 cells for 16-24 hr. Cells were then lysed with Glo-Lysis Buffer (Promega). Equal amounts of Steady-Glo reagent (Promega) was added to each sample and the level of luminescence was determined using a Synergy LX plate reader (BioTek).

Data set [3] is described as follows: RNA or antisense oligonucleotide encapsulation efficiency (Quant-iT Ribogreen RNA / Oligreen ssDNA assays). The data set is classed as physicochemical. On the procedure:
The RNA or antisense oligonucleotide encapsulation efficiency was determined using the Quant-iT Ribogreen RNA or Oligreen ssDNA Assays, respectively (Life Technologies, Burlington, ON). Briefly, LNP was incubated at 37° C. for 10 min in the presence or absence of 1% Triton X-100 (Sigma-Aldrich, St. Louis, Mo.) followed by the addition of the Ribogreen or Oligreen reagent. The fluorescence intensity (Ex/Em: 480/520 nm) was determined and samples treated with Triton X-100 represent total nucleic acid while untreated samples represent unencapsulated nucleic acid.
To prepare the LNPs, ionizable lipid, DSPC, cholesterol and PEG-DMPE were dissolved in ethanol. The siRNA was dissolved in pH 4.0-6.2 buffer composed of 10-50 mM acetate, succinate or citrate. In select cases, 10-50 mM 4-(2-Hydroxyethyl)piperazine-1-ethanesulfonic acid (HEPES) or 2-(N-Morpholino)ethanesulfonic acid (MES) buffer was used. LNP were prepared by rapidly mixing the lipid components in ethanol (in molar ratio of 50/10/38.5/1.5 of […]) with nucleic acids in aqueous buffer at a volumetric flow rate ratio of 1:3 (ethanol to aqueous, combined flow rate >12 mL/min) at room temperature. Typically, siRNA/lipids ratios were targeted for 0.056 wt/μmol. The product was then dialyzed against 1× phosphate-buffered saline (PBS) at pH 7.4 for 24 hours to remove residual ethanol and to raise the pH. PBS was refreshed after 4 hours.

The test system of data set [4] is Firefly Luciferase mRNA expression in liver. The data set can be described thus: LNP luciferase mRNA expression in vivo in the liver of mice. Conditions: C57Bl/6 mice, 1 mg/kg mRNA i.v., liver at 4 hours post-injection. Further details: species or system mouse. On the procedure:
Lipid nanoparticle (LNP) formulations containing cationic lipids of the disclosure and Luciferase mRNA were injected via a tail vein in C57Bl/6 wild-type mice at mRNA dose of 1 mg/kg and the luminescence in the liver was measured post injection. From left-to-right, the cationic lipids incorporated in the LNP-mRNA were INT-A001, INT-A002, INT-A003 and INT-A004. Untreated animals were injected with phosphate buffered saline (PBS).
To assess in vivo activity, LNPs containing Firefly Luciferase mRNA were prepared as described in Example 2. LNPs were diluted with PBS and administered at 1 mg/kg intravenously via tail vein in 6 to 8 weeks old female C57Bl/6 mice (Charles River Laboratories, Wilmington, Mass.). At 4 hours post-injection, animals were euthanized and the livers were collected. Approximately 100 mg of liver was homogenized in 0.5 mL Glo Lysis Buffer (Promega). The homogenate was further diluted 1:4 with the lysis buffer and then 50 μL of diluted homogenate was added to 50 μL Steady-Glo reagent (Promega). The level of luminescence was determined using a Synergy LX plate reader (BioTek).

Data set [5] in a line: LNP particle size and polydispersity by dynamic light scattering. Type of data set: physicochemical.
For data set [6], the system named is luciferase expressing human prostate cells (22Rv1). Put plainly: LNP-siRNA luciferase gene silencing in cultured 22Rv1 cells. Type of data set: cell-based. Conditions: 1 ug/mL siRNA, 16-24 hr. On the procedure:
Cells were treated with lipid nanoparticle (LNP) formulations containing ionizable lipids of the disclosure and Luciferase siRNA at concentrations of 1.0 (left bar), 0.3 (middle bar) and 0.1 μg/mL (right bar). The level of luminescence was measured post treatment. The ionizable lipids incorporated in the LNPs were 2-(dimethylamino)ethyl (±)-syn-9,10-dilinoleoxystearate (INT-A001), 3-(diethylamino)propyl (±)-syn-9,10-dilinoleoxystearate (INT-A002), 3-(dimethylamino)propyl (±)-syn-9,10-dilinoleoxystearate (INT-A003), 2-(diethylamino)ethyl (±)-syn-9,10-dilinoleoxystearate (INT-A004), 3-(dimethylamino)propyl (12R)-linoleoxyoleate (INT-A005), 3-(diethylamino)propyl (syn-9,10,12R)-trilinoleoxystearate (INT-A006), and 3-(diethylamino)propyl (±)-syn-9,10-bis(2-hexyldecanoyloxy)stearate (INT-A007).
The level of luminescence was measured 16-24 hr post treatment and the relative luminescence is ranked from highest (left) to lowest (right).
The activity of the ionizable lipids in vitro was evaluated in luciferase expressing human prostate cells (22Rv1). LNPs containing siRNA against firefly luciferase were prepared as described in Example 2. […] Equal amounts of Steady-Glo reagent (Promega) was added to each sample and the level of luminescence was determined using a Synergy LX plate reader (BioTek). […]

Data set [7] in a line: HA incorporation into LNP (HA:Lipid ratio). Type of data set: physicochemical. The settings on record: LNP containing ionizable lipid and HA (8-15 kDa). On the procedure:
as §1
Hyaluronic acid was used as an example of anionic cargos. LNPs were prepared as described in Example 2 containing HA with a molecular weight of 8-15 kDa.

[8] abbreviates: LNP containing ionizable lipid and a 4.2 kDa acidic peptide (net charge -3).
Where [9] appears, read: LNP containing ionizable lipid and Luciferase mRNA.
Setting [10] is: LNP containing ionizable lipid and antisense oligonucleotide.
The mark [11] stands for this setting: LNP containing ionizable lipid and siRNA.
The mark [12] stands for this setting: LNP containing ionizable lipid and a 2.0 kDa acidic peptide (net charge -3).
[13] abbreviates: LNP containing ionizable lipid and HA (8-15 kDa).

Turning to `CCCCC/C=C\C/C=C\CCCCCCCC(=O)O[C@@H](CCCCCCCC)[C@@H](CCCCCCCC(=O)OCCN(C)C)OC(=O)CCCCCCC/C=C\C/C=C\CCCCC` (racemic) [INT-A001, 2-(Dimethylamino)ethyl (±)-syn-9,10-dilinoleoxystearate], the “Apparent pKa” value in data set [1] came out at 6.3. The “Peptide:Lipid” value in data set [2] (setting [8]) came out at 0.161 wt/wt. In addition, the “Activity in mediating FVII gene-silencing (residual serum FVII levels)” value in the data set on factor VII (FVII) is on record as “active in mediating gene-silencing”. Besides, the “Activity in delivering mRNA and inducing its expression in vitro (luminescence)” value with HepG2 cells was “can effectively deliver mRNA”. Also, the “Encapsulation Efficiency” value in data set [3] (setting [9]) is given as 96%; in data set [3] (setting [10]), 84%; in data set [3] (setting [11]), 89%. The “Activity in delivering mRNA and inducing mRNA expression in vivo (liver luminescence)” value in [4] is “can effectively deliver mRNA”. Also, the “Particle Diameter” value in [5] (setting [9]) turned out to be 43 nm; in data set [5] (setting [8]) it was 48 nm; in data set [5] (setting [10]), 44 nm; in [5] (setting [11]), 50 nm. Besides, the “Polydispersity index (PDI)” value in data set [5] (setting [9]) turned out to be 0.064; in [5] (setting [8]) it was 0.021; in data set [5] (setting [10]), 0.103; in data set [5] (setting [11]), 0.059.
As for `CCCCCCCCC(CCCCCC)C(=O)O[C@@H](CCCCCCCC)[C@@H](CCCCCCCC(=O)OCCCN(CC)CC)OC(=O)C(CCCCCC)CCCCCCCC` (mixture of isomers) [INT-A007, 3-(Diethylamino)propyl (±)-syn-9,10-bis(2-hexyldecanoyloxy)stearate], the “Relative activity in silencing of the firefly luciferase gene (luminescence)” value in data set [6] was “most active”. Moreover, the results for the “Peptide:Lipid” value in [2] (setting [12]) and in [2] (setting [8]) were 0.075 wt/wt and 0.162 wt/wt, respectively. The “Activity in mediating FVII gene-silencing (residual serum FVII levels)” value in the data set with factor VII (FVII) is “active in mediating gene-silencing”. The “HA:Lipid” value in [7] came to 0.096 wt/wt. Besides, the “Encapsulation Efficiency” value in data set [3] (setting [10]) and in data set [3] (setting [11]) was 84% throughout. The “Particle Diameter” value in data set [5] (setting [13]) is given as 58 nm; in data set [5] (setting [12]), 79 nm; in data set [5] (setting [8]) it was 52 nm; in data set [5] (setting [10]) it was 55 nm; in data set [5] (setting [11]), 59 nm. For the same molecule, the “Polydispersity index (PDI)” value in data set [5] (setting [13]) is listed as 0.065; in data set [5] (setting [12]), 0.019; in data set [5] (setting [8]), 0.049; in data set [5] (setting [10]), 0.070; in data set [5] (setting [11]) it was 0.021.
